The target in test [1] is T1, human α1 glycine receptor WT (Homo sapiens, UniProt P23415).
T1 sequence (P23415 29-449 isoform P23415-2 limits assumed): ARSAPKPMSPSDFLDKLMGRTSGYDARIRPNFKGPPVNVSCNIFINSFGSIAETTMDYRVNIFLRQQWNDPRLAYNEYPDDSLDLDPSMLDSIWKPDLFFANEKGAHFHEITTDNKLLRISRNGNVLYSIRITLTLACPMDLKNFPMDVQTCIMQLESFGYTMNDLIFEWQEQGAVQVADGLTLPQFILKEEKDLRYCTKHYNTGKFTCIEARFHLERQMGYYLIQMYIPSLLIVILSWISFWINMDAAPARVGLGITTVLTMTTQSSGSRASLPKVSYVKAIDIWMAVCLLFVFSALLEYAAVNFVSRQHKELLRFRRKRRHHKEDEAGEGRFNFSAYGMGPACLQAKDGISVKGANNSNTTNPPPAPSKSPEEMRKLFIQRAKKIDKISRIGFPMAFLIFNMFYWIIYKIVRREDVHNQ
The test is classed as cell-based. To be noted: for average current elicited: WT GlyR, 10 mM glycine or 100 mM taurine; for Imax (% of max glycine): α1 WT, percentage of maximal glycine current ± S.E.M.

Test [2] has as its target T2, D97R α1 GlyR (Homo sapiens, UniProt P23415, D125R).
T2 sequence (P23415 29-449 isoform P23415-2 D125R limits assumed): T1 sequence (P23415 29-449 isoform P23415-2 limits assumed) with D97R
The test is classed as cell-based. To be noted: for average current elicited: 10 mM glycine or 100 mM taurine; for increase of maximal currents by the D97R mutation: D97R versus WT; for Imax (% of max glycine): D97R, percentage of maximal glycine current ± S.E.M.

In test [3] the target is T3, D97E α1 GlyR (Homo sapiens, UniProt P23415, D125E).
T3 sequence (P23415 29-449 isoform P23415-2 D125E limits assumed): T1 sequence (P23415 29-449 isoform P23415-2 limits assumed) with D97E
The format is cell-based. To be noted: for average current elicited: D97E α1 GlyR, 10 mM glycine or 100 mM taurine.

Test [4] deals with T2, D97R α1 GlyR. The format is cell-based. The note with it: for conductance of the openings: in the presence of taurine or glycine; for Popen of clusters: saturating concentration (100 mM taurine, 10 mM glycine), 2.5 mM tricine.
Test [5] concerns D97A α1 GlyR. The note with it: for Popen of clusters: D97A, saturating concentration (100 mM taurine, 10 mM glycine), 2.5 mM tricine.
Test [6] concerns D97 mutant GlyR. To be noted: saturating concentrations of glycine or taurine.
The test system of test [7] is wildtype α1 GlyR. The test is classed as cell-based, human.

Changes are numbered by the printed parent chain. pEC50: −log10 of the molar value.

As usually defined, the pEC50 is the EC50 on a negative log10 scale, so that one unit is a factor of ten.

Consider `NCC(=O)O` [Glycine], for which the average current elicited in test [1] is given as 27.6 ± 2.9 μA; in test [2] (D97R α1 GlyR) it was 3.68 ± 0.37 μA; in test [3], 11.9 ± 2.9 μA. In addition, in test [4], the “conductance of the openings” value is given as “approximately 75 pS”. Also, the results for the Popen of clusters in test [4] and in test [5] were 0.990 ± 0.001 and 0.938 ± 0.044, respectively. Moreover, in test [5] (D97A multi-channel patch, sample tracing, 10 mM glycine), the “total current in patch” value worked out at 84 pA. Also, the whole-cell current in test [6] is 3000–5000 nA.

With `NCCS(=O)(=O)O` [Taurine], the pEC50 in test [1] (EC50, α1 WT, whole-cell, oocytes, 2.5 mM tricine) is 2.71. Besides, the average current elicited is 11.8 ± 1.7 μA in test [1], 3.56 ± 0.36 μA in test [2] (D97R α1 GlyR) and 11.4 ± 2.9 μA in test [3]. In addition, the “Imax (% of max glycine)” value came out at 41 ± 4.5% in test [1] and 95.6 ± 4.7% in test [3] (D97E, percentage of maximal glycine current ± S.E.M.). Also, in test [2] (D97R GlyR, 100 mM taurine vs 10 mM glycine), the “maximal taurine response versus maximal glycine response” value is given as “approximately equal”. Further, in test [2] (D97R α1 GlyR, taurine and glycine both at 300 mM), the “greater current than glycine” value came out at 12.7 ± 7.1%. In test [4], the “conductance of the openings” value is given as “approximately 75 pS”. Also, the Popen of clusters in test [4] is given as 0.990 ± 0.002; in test [5], 0.987 ± 0.003. Besides, the Popen in test [7] is on record as 0.62 ± 0.06. Further, the whole-cell current in test [6] is listed as 3000–5000 nA.

Turning to `CC(N)CC(=O)O` (stereo not drawn) [β-ABA, β-aminobutyric acid], in test [1], the “Imax (% of max glycine)” value stood at 17.3 ± 9.2%. In test [2], the “increase of maximal currents by the D97R mutation” value is given as “four- to five-fold” and the “Imax (% of max glycine)” value is listed as 89%.

Turning to `CC(CN)C(=O)O` (stereo not drawn) [β-AIBA, β-aminoisobutyric acid], in test [1], the “Imax (% of max glycine)” value is 15.3 ± 3.3%. In test [2], the “increase of maximal currents by the D97R mutation” value was “four- to five-fold” and the “Imax (% of max glycine)” value came out at 61%.
